Data set [1] concerns U-251. The data set can be described thus: cells. The data set is classed as functional, cell-based. The note with it: Homo sapiens, U-251, 48 h.
Description: Cytotoxicity against human TMZ-resistant U251 cells assessed as inhibition of cell growth incubated for 48 hrs by MTT assay
The nature of data set [2]: Toxicity in mouse bearing intracranial tumor assessed as last day of survival at 25 mg/kg, ip treatment started at 7 dpi (Rvb=19 days). The note with it: in vivo, 456 h. The data set is classed as organism-based.
Data set [3] deals with GL26. The data set can be described thus: Antiproliferative activity against mouse GL26 cells assessed as decrease in number of colonies at 0.625 to 1.25 uM incubated for 48 hrs by colony formation assay. The data set is classed as functional, cell-based. To be noted: dose 0.625-1.25 µM.
Data set [4] deals with Mus musculus. The data set can be described thus: In vivo inhibition of MAO-A in mouse xenografted with mouse GL26 assessed as decrease in MAO activity in brain at 25 mg/kg, ip administered for 10 days by bioluminescence assay. In kind it is functional, organism-based. The note with it: time 10.0 day.
Data set [5] in a line: Cytotoxicity against mouse GL26 cells assessed as inhibition of cell growth incubated for 48 hrs by MTT assay. In kind it is functional, cell-based. The note with it: GL26, 48 h. (Formazan colour is commonly taken as a measure of viable cells.)
The test system of data set [6] is GL26. The data set can be described thus: Antitumor activity against mouse GL26 cells implanted in C57BL6 mouse assessed as reduction in tumor size at 50 mg/kg, ip daily measured for 10 days by bioluminescence assay. The data set is classed as functional, organism-based. The note with it: time 10.0 day.
The test system of data set [7] is U-251. The data set can be described thus: cells. In kind it is functional, cell-based. The note with it: Homo sapiens, U-251, 48 h. The source holds these as a separate data set.
Description: Cytotoxicity against human TMZ-sensitive U251 cells assessed as inhibition of cell growth incubated for 48 hrs by MTT assay
Data set [8] concerns Mus musculus. The data set can be described thus: In vivo inhibition of MAO-A in C57BL6 mouse xenografted with mouse GL26 cells as decrease in MAO activity in brain at 50 mg/kg, ip by radiometric analysis. The data set is classed as functional, organism-based.
Data set [9] has as its system U-251. The data set can be described thus: Cytotoxicity against human U251 cells assessed as inhibition of cell growth incubated for 48 hrs by MTT assay. The data set is classed as functional, cell-based. The note with it: DDE = dose-dependent effect.
The subject of data set [10] is Mus musculus. The data set can be described thus: In vivo inhibition of MAO-A in mouse xenografted with mouse GL26 assessed as decrease in MAO activity in tumor at 25 mg/kg, ip administered for 10 days by bioluminescence assay. The data set is classed as functional, organism-based. To be noted: time 10.0 day.
Data set [11] addresses Histone deacetylase 2 (Homo sapiens, UniProt Q92769). The data set can be described thus: Inhibition of human HDAC2 (379 to 382 residues) using RHKKAc-AMC fluorogenic peptide as substrate by fluorescence assay.
Data set [12] in a line: Toxicity in C57BL6 mouse xenografted with mouse GL26 cells as assessed as last day of survival at 50 mg/kg, ip for 14 days treatment started at 5 days post-infection (Rvb=14 days). The note with it: in vivo, 336 h, time 14 day. In kind it is organism-based.
The target in data set [13] is Histone deacetylase 1 (Homo sapiens, UniProt Q13547). The data set can be described thus: Inhibition of human HDAC1 (379 to 382 residues) using RHKKAc-AMC fluorogenic peptide as substrate by fluorescence assay.
Histone deacetylase 1, sequence (Q13547 whole entry, the tested form may be a part): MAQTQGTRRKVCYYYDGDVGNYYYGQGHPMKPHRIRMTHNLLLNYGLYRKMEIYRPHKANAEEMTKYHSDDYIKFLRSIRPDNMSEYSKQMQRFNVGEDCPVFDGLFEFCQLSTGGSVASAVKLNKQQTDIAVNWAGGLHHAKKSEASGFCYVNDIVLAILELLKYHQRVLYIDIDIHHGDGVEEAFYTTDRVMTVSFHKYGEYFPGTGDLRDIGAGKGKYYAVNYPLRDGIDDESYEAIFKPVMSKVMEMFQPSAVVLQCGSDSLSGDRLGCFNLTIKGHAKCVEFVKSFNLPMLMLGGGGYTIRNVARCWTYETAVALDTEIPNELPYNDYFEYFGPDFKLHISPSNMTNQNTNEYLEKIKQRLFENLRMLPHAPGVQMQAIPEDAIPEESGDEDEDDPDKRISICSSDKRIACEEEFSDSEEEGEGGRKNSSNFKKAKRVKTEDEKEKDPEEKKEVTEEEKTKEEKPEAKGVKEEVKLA
Data set [14] has as its target T1, Amine oxidase [flavin-containing] A (Homo sapiens, UniProt P21397).
T1 sequence (P21397 whole entry): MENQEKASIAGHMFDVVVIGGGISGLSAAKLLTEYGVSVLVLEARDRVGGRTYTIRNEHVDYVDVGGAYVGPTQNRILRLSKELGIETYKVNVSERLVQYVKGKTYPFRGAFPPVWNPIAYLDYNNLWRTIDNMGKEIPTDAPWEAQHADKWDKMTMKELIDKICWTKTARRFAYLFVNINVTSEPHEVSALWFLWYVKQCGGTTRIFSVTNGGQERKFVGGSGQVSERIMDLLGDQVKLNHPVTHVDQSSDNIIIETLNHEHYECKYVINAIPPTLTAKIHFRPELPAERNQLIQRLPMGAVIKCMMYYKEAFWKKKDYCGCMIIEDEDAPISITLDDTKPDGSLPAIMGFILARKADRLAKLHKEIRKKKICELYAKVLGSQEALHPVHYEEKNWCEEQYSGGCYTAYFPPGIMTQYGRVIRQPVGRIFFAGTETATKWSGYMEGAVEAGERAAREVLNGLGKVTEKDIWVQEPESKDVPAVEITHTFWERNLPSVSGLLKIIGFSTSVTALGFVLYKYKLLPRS
The data set can be described thus: Inhibition of MAO-A (unknown origin) expressed in mouse GL26 cells using 14C 5-hydroxytryptamine as substrate pre-incubated for 20 mins followed by substrate addition measured after 20 mins by liquid scintillation spectroscopy. In kind it is cell-based.

The nature of data set [15]: Toxicity in mouse bearing intracranial tumor assessed as assessed as median survival time at 50 mg/kg, ip for 14 days treatment started at 5 days post-infection (Rvb=12.8 days). To be noted: in vivo, 336 h, time 14 day. The data set is classed as organism-based.
Data set [16] in a line: Toxicity in mouse bearing intracranial tumor assessed as assessed as median survival time at 25 mg/kg, ip treatment started at 7 dpi (Rvb=18.25 days). In kind it is organism-based. To be noted: in vivo, 438 h.
Data set [17] has as its target T2, Protein deacetylase HDAC6 (Homo sapiens, UniProt Q9UBN7).
T2 sequence (Q9UBN7 whole entry): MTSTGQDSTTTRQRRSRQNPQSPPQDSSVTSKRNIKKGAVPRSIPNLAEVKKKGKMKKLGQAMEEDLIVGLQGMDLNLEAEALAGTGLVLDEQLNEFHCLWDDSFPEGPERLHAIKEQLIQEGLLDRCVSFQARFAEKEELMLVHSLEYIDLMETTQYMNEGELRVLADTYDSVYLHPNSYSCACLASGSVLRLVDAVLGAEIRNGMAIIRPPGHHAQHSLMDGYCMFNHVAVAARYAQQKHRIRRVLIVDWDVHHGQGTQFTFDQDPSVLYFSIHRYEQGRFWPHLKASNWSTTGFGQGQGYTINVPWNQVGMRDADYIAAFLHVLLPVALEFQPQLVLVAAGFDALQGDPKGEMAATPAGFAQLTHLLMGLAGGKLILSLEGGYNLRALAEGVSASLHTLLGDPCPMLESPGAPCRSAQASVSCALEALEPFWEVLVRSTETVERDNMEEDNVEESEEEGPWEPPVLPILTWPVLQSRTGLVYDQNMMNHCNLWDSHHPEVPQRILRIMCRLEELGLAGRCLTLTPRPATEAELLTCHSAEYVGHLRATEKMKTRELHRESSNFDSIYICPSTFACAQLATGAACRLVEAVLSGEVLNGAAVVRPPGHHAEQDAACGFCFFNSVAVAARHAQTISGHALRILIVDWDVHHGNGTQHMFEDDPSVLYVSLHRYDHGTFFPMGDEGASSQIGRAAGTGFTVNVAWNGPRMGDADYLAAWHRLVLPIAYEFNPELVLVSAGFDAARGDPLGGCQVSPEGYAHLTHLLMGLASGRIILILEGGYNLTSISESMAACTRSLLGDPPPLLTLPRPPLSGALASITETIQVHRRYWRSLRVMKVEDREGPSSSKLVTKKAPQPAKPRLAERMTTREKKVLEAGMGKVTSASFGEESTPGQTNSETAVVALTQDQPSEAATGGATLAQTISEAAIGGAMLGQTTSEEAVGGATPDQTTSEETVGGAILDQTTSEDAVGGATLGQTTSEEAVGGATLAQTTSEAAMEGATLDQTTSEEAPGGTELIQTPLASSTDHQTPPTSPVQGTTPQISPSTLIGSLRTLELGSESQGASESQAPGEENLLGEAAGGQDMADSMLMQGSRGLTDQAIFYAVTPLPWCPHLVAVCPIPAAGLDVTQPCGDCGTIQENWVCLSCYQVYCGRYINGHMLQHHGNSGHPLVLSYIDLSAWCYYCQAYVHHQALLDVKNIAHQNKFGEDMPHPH
The data set can be described thus: Inhibition of human HDAC6 (379 to 382 residues) using RHKKAc fluorogenic peptide as substrate by fluorescence assay.

The source made the active and inactive calls. No cut-off for these calls is given here.

As a reminder, the IC50 is the concentration at which inhibition is half-maximal.

Histone deacetylase 2, sequence (Q92769 whole entry, the tested form may be a part): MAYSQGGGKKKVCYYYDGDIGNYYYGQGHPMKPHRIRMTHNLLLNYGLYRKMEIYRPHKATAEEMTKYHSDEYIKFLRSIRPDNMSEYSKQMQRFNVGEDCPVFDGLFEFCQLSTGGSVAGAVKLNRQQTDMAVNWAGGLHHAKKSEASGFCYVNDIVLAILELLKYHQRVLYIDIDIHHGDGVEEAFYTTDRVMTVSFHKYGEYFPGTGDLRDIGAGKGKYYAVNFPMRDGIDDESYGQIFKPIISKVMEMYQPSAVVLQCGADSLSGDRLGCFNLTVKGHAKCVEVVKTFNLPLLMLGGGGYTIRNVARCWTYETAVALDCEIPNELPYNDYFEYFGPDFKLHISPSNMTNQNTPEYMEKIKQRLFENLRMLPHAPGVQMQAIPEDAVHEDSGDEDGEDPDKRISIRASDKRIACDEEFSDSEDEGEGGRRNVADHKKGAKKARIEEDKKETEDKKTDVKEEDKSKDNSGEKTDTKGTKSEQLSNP

Take `C#CCN(C)CCCOc1ccc(NC(=O)CCCCCCC(=O)NO)cc1Cl`: the IC50 in data set [1] came out at 2730 nM; in data set [5] it was 6040 nM; in [7], 2830 nM; in data set [11] it was 460 nM; in data set [13] it was 140 nM; in data set [14], 30 nM. In data set [17], this molecule displayed a concentration for half-maximal inhibition (IC50) of 6 nM. The Survival in data set [2] turned out to be 20 days; in data set [12], 16 days. Besides, the result in data set [3], in [4], in [6], in data set [8] and in data set [10] was Active. Besides, the Activity result in data set [9] was “Dde”. The results for the MST in data set [15] and in data set [16] were 14.25 days and 17.25 days, respectively.

Consider `C#CCN(C)CCCOc1cc(NCc2ccc(/C=C/C(=O)NO)cc2)ccc1Cl`, for which the half-inhibitory concentration (IC50) in [1] came to 990 nM; in data set [5] it was 120 nM; in [7] it was 3240 nM; in [11], 1160 nM; in [13], 510 nM; in [14], 4 nM. Half-maximal inhibition in data set [17] (IC50) required 100 nM. The Survival in data set [2] worked out at 22 days; in data set [12], 14 days. Also, the Activity result in data set [3] (DDE = dose-dependent effect) and in [9] was “Dde” each time. Moreover, the outcome in data set [4], in [6], in data set [8] and in data set [10] was Active. Further, the MST in [15] was 12.75 days; in data set [16] it was 19.5 days.

Source of the values: ChEMBL document CHEMBL5154693, “N-Methylpropargylamine-Conjugated Hydroxamic Acids as Dual Inhibitors of Monoamine Oxidase A and Histone Deacetylase for Glioma Treatment” (J Med Chem, 2022).
